Assay results reported in patent US8530701B2, “High purity 2-[4-(3- OR 2-fluorobenzyloxy)benzylamino]propanamides and methods of use thereof” (priority 2007, dated 2013).
Read-outs that look alike come from different tables or passages of the source.

Tests used:
Male CD1 mice = assay type: in vivo
Description: The maximal electroshock test (MES) is used commonly in the screening of anti-epileptic drugs in rodent models.
Animals and Apparatus: Male CD1 mice weighing 25 g were used. […] The stimulus was delivered intra-aurally through clip electrodes in mice (0.7 seconds of a 40 mA shock, with a pulse train of 80 Hz having a pulse duration of 0.4 ms). The acute effect of compounds administered intraperitoneally or orally 15-60 min before MES induction were examined and compared with a vehicle control group. Ten mice were studied per group. Complete suppression of the hindlimb tonic extensor component of seizures was taken as evidence of anticonvulsant activity.
The compounds of the invention were administered orally or intraperitoneally at the doses of 3-30 mg/kg.
The results are expressed in Tables 3 and 4 as % of protection.

CYP2C19 = target: T1, CYP2C19 (Homo sapiens, UniProt P33261); test: Cytochrome P450 assay (Gentest Kit), CYP2C19; assay type: in vitro ADME
T1 construct: purchased Gentest
Description: (§1) Inhibition of the five most important Cytochrome P450 isoforms (CYP1A2, CYP2C9, CYP2C19, CYP2D6 and CYP3A4), involved in drug metabolism, was measured using specific substrates that become fluorescent upon CYP metabolism (Gentest Kit assay).
(§2) Compounds were tested in a 96-well plate containing incubation/NADPH regenerating buffer. Specific human recombinant isoenzymes and substrates were added and incubated at 37° C. for 15 min for CYP1A2/CEC, 40 min for CYP2E1/MFC, 45 min for CYP2C9/MFC and 30 min for the others CYP450.
(§3) The specific substrates were the following: 3-cyano-7-ethoxycoumarin (CYP2C19 and CYP1A2), • 7-methoxy-4-trifluoromethylcoumarin (CYP2C9), • 3[2(N,N-diethyl-N-methylamino)ethyl]-7-methoxy-4-methylcoumarin (CYP2D6) • benzylphenylcoumarin (CYP3A4)

recombinant HERG channel [1] = target: T2, recombinant HERG channel (Homo sapiens, UniProt Q12809)
Description: (§10) The inhibition of HERG current was tested in CHO cells stably expressing recombinant HERG channel.
(§11) To evaluate the effect of the test compounds on HERG currents, cells were clamped at −80 mV, depolarised to 0 mV for 5 seconds allowing activation of HERG current and repolarised to −50 mV during 5 seconds allowing HERG tail current to deactivate. This procedure was repeated at a frequency of 0.06 Hz. The current amplitude upon repolarisation (HERG tail current) was measured before and after exposure to the test compound.
(§12) Inhibition of current was calculated as the difference between the amplitude of HERG tail current amplitude measured at the end of external bath perfusion period and HERG tail current measured at the end of test compound perfusion period (when steady-state effect is reached) divided by control HERG tail current.
(§13) Drug concentration-inhibition curves were obtained by plotting tonic blocks versus drug concentrations. Dose-response curves were fitted to the tonic block data, according to the logistic equation: y=A2+(A1−A2)/[1+(x/IC50)^p].

CYP3A4 = target: T3, CYP3A4 (Homo sapiens, UniProt P08684); test: Cytochrome P450 assay (Gentest Kit), CYP3A4; assay type: in vitro ADME
T3 construct: purchased Gentest
Description: as §1, §2, §3

CYP2D6 = target: T4, CYP2D6 (Homo sapiens, UniProt P10635); test: Cytochrome P450 assay (Gentest Kit), CYP2D6; assay type: in vitro ADME
T4 construct: purchased Gentest
Description: as §1, §2, §3

CYP2C9 = target: T5, CYP2C9 (Homo sapiens, UniProt P11712); test: Cytochrome P450 assay (Gentest Kit), CYP2C9; assay type: in vitro ADME
T5 construct: purchased Gentest
Description: as §1, §2, §3

CYP1A2 = target: T6, CYP1A2 (Homo sapiens, UniProt P05177); test: in vitro; assay type: in vitro ADME
T6 construct: purchased Gentest
T6 sequence (P05177 1-516): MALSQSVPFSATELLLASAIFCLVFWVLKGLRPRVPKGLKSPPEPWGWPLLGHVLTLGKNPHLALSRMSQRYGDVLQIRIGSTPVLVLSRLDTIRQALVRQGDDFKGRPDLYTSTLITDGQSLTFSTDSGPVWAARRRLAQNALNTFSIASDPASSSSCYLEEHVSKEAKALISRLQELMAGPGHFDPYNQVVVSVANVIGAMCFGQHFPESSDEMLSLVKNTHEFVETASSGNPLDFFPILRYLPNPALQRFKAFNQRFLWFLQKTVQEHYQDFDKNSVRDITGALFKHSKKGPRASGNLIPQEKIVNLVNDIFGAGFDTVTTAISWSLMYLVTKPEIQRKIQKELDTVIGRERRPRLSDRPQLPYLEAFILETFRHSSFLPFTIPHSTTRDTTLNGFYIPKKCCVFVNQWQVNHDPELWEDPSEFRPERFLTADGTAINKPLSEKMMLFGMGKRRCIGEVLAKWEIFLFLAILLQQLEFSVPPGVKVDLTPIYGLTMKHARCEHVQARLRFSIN
Description: as §1, §2, §3

[2] = system: human neuroblastoma cell line SH-SY-5Y; test: Cytotoxicity assay in human neuroblastoma cell line SH-SY-5Y; assay type: cell-based
Description: (§4) At time zero, the cells were seeded at 1.10^4/cm^2 in 96 well plates in DMEM growth medium+10% heat inactivated FBS+2 mM 1-Glutamine+100 U/mL-100 μg/mL Penicillin/Streptomycin.
(§5) After 72 hours at subconfluent phase of growth, the medium was removed and cells were incubated for 24 hours at 37° C. in 180 μL of neurobasal medium+2 mM 1-Glutamine (Life Techonologies) with or without test compounds (20 μL, at least 5 concentrations in triplicate).
(§6) At the end of incubation, 20 μL of Alamar Blue dye (AlamarBlue™ Assay Kit, Promega) were directly added to the cell medium.
(§7) Four hours after, the cytotoxicity was assessed by measuring the fluorescence at 530 nm excitation and 595 nm emission using Tecan Spectrafluor plate reader.
(§8) Before and at the end of the treatment, the cultures were monitored microscopically by an Olympus IX70 inverted light microscope matched to an Image Analyzer (Image Pro Plus, 5.1) to evaluate the cellular morphology.
(§9) Results are expressed in Table 1 as concentration inducing 50% of mortality.

recombinant HERG channel [3] = target: T2, recombinant HERG channel; test: HERG current in transfected CHO cell lines
Description: as §10, §11, §12, §13

[4] = Cytotoxicity assay in human neuroblastoma cell line SH-SY-5Y; assay type: cell-based; details: human, SH-SY-5Y neuroblastoma cells; SH-SY-5Y, 24 hours incubation, Alamar Blue; concentration inducing 50% of mortality
Description: as §4, §5, §6, §7, §8, §9

[5] = human recombinant isoenzyme, substrate 3-cyano-7-ethoxycoumarin, read-out: CYP2C19 IC50
[6] = Table 1, human recombinant isoenzyme, substrate benzylphenylcoumarin, read-out: CYP3A4 IC50
[7] = human recombinant isoenzyme, fluorescent substrate, read-out: CYP2D6 IC50
[8] = human recombinant isoenzyme, substrate 7-methoxy-4-trifluoromethylcoumarin, read-out: CYP2C9 IC50

T4 sequence (P10635 whole entry): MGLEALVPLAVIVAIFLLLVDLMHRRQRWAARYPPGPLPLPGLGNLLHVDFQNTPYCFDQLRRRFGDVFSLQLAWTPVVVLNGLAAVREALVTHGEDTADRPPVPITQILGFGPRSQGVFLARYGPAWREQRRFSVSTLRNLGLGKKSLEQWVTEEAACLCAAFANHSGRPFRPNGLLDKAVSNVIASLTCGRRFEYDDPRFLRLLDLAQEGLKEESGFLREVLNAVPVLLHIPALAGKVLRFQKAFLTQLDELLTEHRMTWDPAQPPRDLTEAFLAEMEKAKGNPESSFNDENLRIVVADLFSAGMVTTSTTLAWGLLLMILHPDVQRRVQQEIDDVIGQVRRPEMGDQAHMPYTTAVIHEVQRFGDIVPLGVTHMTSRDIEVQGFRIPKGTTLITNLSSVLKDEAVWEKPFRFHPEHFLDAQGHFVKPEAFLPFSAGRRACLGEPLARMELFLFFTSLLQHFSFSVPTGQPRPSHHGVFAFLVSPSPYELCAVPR
T5 sequence (P11712 whole entry): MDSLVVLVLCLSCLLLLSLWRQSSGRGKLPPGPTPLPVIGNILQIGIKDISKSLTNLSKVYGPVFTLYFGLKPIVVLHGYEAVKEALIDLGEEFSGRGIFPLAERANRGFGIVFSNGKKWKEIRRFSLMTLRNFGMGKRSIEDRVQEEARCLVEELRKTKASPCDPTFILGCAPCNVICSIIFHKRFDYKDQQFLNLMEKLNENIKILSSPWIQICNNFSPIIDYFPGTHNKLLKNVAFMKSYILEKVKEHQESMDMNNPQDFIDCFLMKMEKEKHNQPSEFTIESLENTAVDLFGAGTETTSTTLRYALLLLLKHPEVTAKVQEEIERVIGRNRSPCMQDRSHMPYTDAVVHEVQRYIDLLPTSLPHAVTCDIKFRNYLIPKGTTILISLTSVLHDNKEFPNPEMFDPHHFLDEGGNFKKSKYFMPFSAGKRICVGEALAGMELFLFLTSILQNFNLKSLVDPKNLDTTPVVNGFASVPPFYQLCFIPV
T1 sequence (P33261 whole entry): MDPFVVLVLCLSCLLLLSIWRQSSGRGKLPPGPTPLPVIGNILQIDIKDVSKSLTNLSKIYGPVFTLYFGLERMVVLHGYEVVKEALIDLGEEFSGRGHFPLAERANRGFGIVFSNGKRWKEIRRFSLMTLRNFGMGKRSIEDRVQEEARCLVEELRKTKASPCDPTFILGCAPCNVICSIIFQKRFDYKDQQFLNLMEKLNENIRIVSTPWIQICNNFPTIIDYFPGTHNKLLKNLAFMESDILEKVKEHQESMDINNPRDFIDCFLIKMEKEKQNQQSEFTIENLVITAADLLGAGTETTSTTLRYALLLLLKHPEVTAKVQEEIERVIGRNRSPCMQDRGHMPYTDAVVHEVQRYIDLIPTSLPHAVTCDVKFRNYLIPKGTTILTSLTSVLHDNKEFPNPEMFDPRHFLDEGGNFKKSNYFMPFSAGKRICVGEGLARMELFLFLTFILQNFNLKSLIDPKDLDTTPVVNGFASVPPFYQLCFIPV
T2 sequence (Q12809 whole entry): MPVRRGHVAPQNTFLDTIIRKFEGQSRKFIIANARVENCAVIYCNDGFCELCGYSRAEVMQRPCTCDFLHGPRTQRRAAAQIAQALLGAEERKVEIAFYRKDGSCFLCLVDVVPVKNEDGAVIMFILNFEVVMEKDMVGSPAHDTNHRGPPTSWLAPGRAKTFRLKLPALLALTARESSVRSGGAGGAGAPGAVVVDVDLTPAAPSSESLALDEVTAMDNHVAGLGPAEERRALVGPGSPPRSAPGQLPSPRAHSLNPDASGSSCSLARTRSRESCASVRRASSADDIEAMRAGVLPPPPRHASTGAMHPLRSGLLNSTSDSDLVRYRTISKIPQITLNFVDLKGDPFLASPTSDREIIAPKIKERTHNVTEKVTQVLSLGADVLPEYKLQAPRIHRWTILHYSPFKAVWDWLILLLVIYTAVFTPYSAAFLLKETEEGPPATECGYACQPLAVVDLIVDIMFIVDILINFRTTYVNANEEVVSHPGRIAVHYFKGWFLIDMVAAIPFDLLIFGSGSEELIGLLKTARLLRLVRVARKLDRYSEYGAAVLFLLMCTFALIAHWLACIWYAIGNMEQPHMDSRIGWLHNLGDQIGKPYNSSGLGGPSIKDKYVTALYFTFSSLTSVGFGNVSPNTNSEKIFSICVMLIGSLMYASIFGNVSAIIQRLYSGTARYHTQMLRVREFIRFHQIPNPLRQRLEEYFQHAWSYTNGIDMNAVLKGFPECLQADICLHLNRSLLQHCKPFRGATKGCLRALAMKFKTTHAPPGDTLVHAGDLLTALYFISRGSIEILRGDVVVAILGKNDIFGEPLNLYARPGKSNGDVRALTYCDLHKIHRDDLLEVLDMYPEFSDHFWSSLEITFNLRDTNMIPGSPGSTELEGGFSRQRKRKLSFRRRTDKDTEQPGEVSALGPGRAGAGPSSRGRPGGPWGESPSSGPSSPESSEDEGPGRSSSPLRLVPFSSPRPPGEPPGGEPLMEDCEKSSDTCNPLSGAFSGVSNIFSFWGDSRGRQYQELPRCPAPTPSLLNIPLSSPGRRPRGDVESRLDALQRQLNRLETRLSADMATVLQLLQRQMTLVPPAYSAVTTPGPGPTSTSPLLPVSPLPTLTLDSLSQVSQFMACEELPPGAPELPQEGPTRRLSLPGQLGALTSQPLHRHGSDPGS
T3 sequence (P08684 whole entry): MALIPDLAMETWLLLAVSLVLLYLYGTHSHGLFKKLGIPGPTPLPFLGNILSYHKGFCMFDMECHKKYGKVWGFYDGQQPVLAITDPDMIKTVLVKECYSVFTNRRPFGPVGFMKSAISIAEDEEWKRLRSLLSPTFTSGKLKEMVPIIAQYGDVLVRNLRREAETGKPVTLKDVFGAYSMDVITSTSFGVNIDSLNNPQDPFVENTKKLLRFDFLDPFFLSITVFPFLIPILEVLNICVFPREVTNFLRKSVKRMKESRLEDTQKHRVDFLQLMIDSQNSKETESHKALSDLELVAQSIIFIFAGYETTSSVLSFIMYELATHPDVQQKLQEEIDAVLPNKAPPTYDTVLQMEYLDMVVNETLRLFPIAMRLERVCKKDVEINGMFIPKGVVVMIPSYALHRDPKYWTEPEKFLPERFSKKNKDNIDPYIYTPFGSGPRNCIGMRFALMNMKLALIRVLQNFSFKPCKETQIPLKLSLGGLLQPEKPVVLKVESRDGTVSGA

SMILES: CS(=O)(=O)O.C[C@H](NCc1ccc(OCc2cccc(F)c2)cc1)C(N)=O [Safinamide methanesulfonate (Ic), (S)-2-[4-(3-fluorobenzyloxy)benzylamino]propanamide methanesulfonate, reference compound]
- MES % protection (Male CD1 mice; mice, 3 mg/kg ip): 50%
- MES % protection (Male CD1 mice; mice, 10 mg/kg ip): 100%
- MES % protection (Male CD1 mice; mice, 30 mg/kg ip): 100%

SMILES: C[C@@H](NCc1ccc(OCc2cccc(F)c2)c(Cc2cccc(F)c2)c1)C(N)=O (racemic) [Impurity (IIc, II′c), (R,S)-2-[3-(3-fluorobenzyl)-4-(3-fluorobenzyloxy)-benzylamino]propanamide methanesulfonate]
- IC50 (CYP2C19): 170 nM
- IC50 (recombinant HERG channel [1]): < 1000 nM
- IC50 (CYP3A4): 60 nM
- IC50 (CYP2D6): 310 nM
- IC50 (CYP2C9): 5570 nM
- IC50 (CYP1A2): 28000 nM
- IC50 [2]: 11800 nM

SMILES: C[C@@H](NCc1ccc(OCc2cccc(F)c2)c(Cc2cccc(F)c2)c1)C(N)=O [Impurity (II′c), (R)-2-[3-(3-fluorobenzyl)-4-(3-fluorobenzyloxy)-benzylamino]propanamide methanesulfonate]
- IC50 (CYP2C19; [5]): 150 nM
- IC50 (recombinant HERG channel [3]): < 1000 nM
- IC50 (CYP3A4; [6]): 90 nM
- IC50 (CYP2D6; [7]): 150 nM
- IC50 (CYP2C9; [8]): 4940 nM
- IC50 (CYP1A2; human recombinant isoenzyme, substrate 3-cyano-7-ethoxycoumarin, read-out: CYP1A2 IC50): 29200 nM
- IC50 at 24 h [4]: 8810 nM

SMILES: C[C@@H](NCc1ccc(OCc2ccccc2F)c(Cc2ccccc2F)c1)C(N)=O [Impurity (II′d), (R)-2-[3-(2-fluorobenzyl)-4-(2-fluorobenzyloxy)-benzylamino]propanamide methanesulfonate]
- IC50 (CYP2C19; [5]): 30 nM
- IC50 (recombinant HERG channel [3]): < 1000 nM
- IC50 (CYP3A4; [6]): 70 nM
- IC50 (CYP2D6; [7]): 620 nM
- IC50 (CYP2C9; [8]): 4340 nM
- IC50 at 15 min (CYP1A2; recombinant human CYP1A2, probe 3-cyano-7-ethoxycoumarin, human recombinant isoenzyme, substrate 3-cyano-7-ethoxycoumarin): > 40000 nM
- IC50 at 24 h [4]: 11500 nM

SMILES: CS(=O)(=O)O.C[C@H](NCc1ccc(OCc2ccccc2F)c(Cc2ccccc2F)c1)C(N)=O [Impurity (IId), (S)-2-[3-(2-fluorobenzyl)-4-(2-fluorobenzyloxy)-benzylamino]propanamide methanesulfonate]
- MES dead/live (Male CD1 mice; mice, 10 mg/kg p.o.): 0/10
- MES dead/live (Male CD1 mice; mice, 20 mg/kg p.o.): 0/10
- protection of mice from convulsions in MES test (in words) (Male CD1 mice; p.o. at 10 and 20 mg/kg, compared with same doses of ralfinamide methanesulfonate): doesn't protect mice from convulsions

SMILES: CS(=O)(=O)O.C[C@H](NCc1ccc(OCc2cccc(F)c2)c(Cc2cccc(F)c2)c1)C(N)=O [Impurity (IIc), (S)-2-[3-(3-fluorobenzyl)-4-(3-fluorobenzyloxy)-benzylamino]propanamide methanesulfonate]
- MES dead/live (Male CD1 mice; mice, 3 mg/kg ip): 5/10
- MES dead/live (Male CD1 mice; mice, 10 mg/kg ip): 4/10
- MES dead/live (Male CD1 mice; mice, 30 mg/kg ip): 4/10
- pharmacological activity, i.e. protection from convulsions, in MES test (in words) (Male CD1 mice; mice, ip, from 3 mg/kg): without any pharmacological activity
- mortality in the mice MES test (in words) (Male CD1 mice; starting from 3 mg/kg ip): increases

SMILES: C[C@@H](NCc1ccc(OCc2ccccc2F)c(Cc2ccccc2F)c1)C(N)=O (racemic) [Impurity (IId, II′d), (R,S)-2-[3-(2-fluorobenzyl)-4-(2-fluorobenzyloxy)-benzylamino]propanamide methanesulfonate]
- IC50 (CYP2C19): 30 nM
- IC50 (recombinant HERG channel [1]): < 1000 nM
- IC50 (CYP3A4): 60 nM
- IC50 (CYP2D6): 1190 nM
- IC50 (CYP2C9): 4960 nM
- IC50 (CYP1A2): 39400 nM
- IC50 [2]: 14300 nM
